This note sets out measurements from ChEMBL document CHEMBL1201862, “PubChem BioAssay data set” (2004).

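Results reflect a 48-hour exposure of cells in 96-well plates to compound at five concentrations. The concentration for 50% growth inhibition is given as GI50.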 The source made the active and inactive calls. No stated cut-off is given here; in the data, active = GI50 up to about 1.1 µM and inactive = higher.

Test systems include HCT-15; EKVX; CAKI-1; COLO 205; NCI-H23; HCT-116; PC-3; NCI-H522; SN12C; M14; DU-145; Malme-3M; OVCAR-3; MCF7; MOLT-4; T47D; IGROV-1; HT-29; CCRF-CEM; NCI/ADR-RES.
Common to all, as to assay: NCI anticancer screen, dose series, 48 h

`O=C(O)CCNCC(=O)O`: the GI50 was > 100 µM in the assay with HCT-15; > 100 µM (inactive) in the assay on EKVX; > 100 µM (inactive) in the assay on CAKI-1; > 100 µM (inactive) in the assay on COLO 205; > 100 µM (inactive) in the assay on NCI-H23; > 100 µM (inactive) in the assay on HCT-116. Moreover, the GI50 in the assay on PC-3, in the assay on NCI-H522, with SN12C, in the assay with M14, in the assay on DU-145 and in the assay with Malme-3M was > 100 µM (inactive) each time. The GI50 with OVCAR-3, in the assay on MCF7, with MOLT-4, in the assay on T47D, in the assay with IGROV-1 and in the assay with HT-29 was > 100 µM (inactive) each time. Moreover, the GI50 with CCRF-CEM and in the assay on NCI/ADR-RES was > 100 µM (inactive) throughout.
Take `COC(=O)c1ccccc1CC1Cc2ccc3c(c2C1=O)CCCC3` (stereo not given): the GI50 is 25.4 µM with HCT-15; 29.9 µM (inactive) in the assay with EKVX; 24 µM (inactive) with CAKI-1; 34 µM (inactive) with COLO 205; 35.3 µM (inactive) in the assay with NCI-H23; 29.2 µM (inactive) in the assay on HCT-116. For the same compound, the GI50 in the assay with PC-3 is 23.7 µM (inactive); with NCI-H522, 22.6 µM (inactive); in the assay on SN12C, 37.2 µM (inactive); with M14 it was 49 µM (inactive); in the assay on DU-145, 48.4 µM (inactive); in the assay on Malme-3M, 28.1 µM (inactive). Also, the GI50 in the assay on OVCAR-3 was 51.4 µM (inactive); in the assay with MCF7, 37.4 µM (inactive); with MOLT-4, 10.4 µM (inactive); with T47D, 13.8 µM (inactive); in the assay on IGROV-1, > 100 µM (inactive); in the assay with HT-29, 20.4 µM (inactive). For the same compound, the figures for the GI50 with CCRF-CEM and with NCI/ADR-RES were 23.8 µM (inactive) and 23.6 µM (inactive), respectively.
As to `Cc1cc(C)c(S(=O)(=O)N2CCCN(S(=O)(=O)c3c(C)cc(C)cc3C)OCCCO2)c(C)c1`, the GI50 with HCT-15 is > 100 µM; in the assay with EKVX it was > 100 µM (inactive); in the assay with CAKI-1, > 100 µM (inactive); with COLO 205, > 100 µM (inactive); in the assay on NCI-H23 it was 75.5 µM (inactive); in the assay with HCT-116, > 100 µM (inactive). The GI50 is 89.3 µM (inactive) in the assay on PC-3; > 100 µM (inactive) in the assay on NCI-H522; > 100 µM (inactive) in the assay on SN12C; > 100 µM (inactive) in the assay with M14; > 100 µM (inactive) in the assay on DU-145; > 100 µM (inactive) in the assay with Malme-3M. In addition, the GI50 was > 100 µM (inactive) with OVCAR-3; > 100 µM (inactive) in the assay on MCF7; > 100 µM (inactive) in the assay on MOLT-4; 63.5 µM (inactive) in the assay on T47D; > 100 µM (inactive) with IGROV-1; > 100 µM (inactive) in the assay with HT-29. Also, the GI50 in the assay with CCRF-CEM and in the assay on NCI/ADR-RES was > 100 µM (inactive) in each case.
As for `O=c1[nH]nc(-c2cccc(Br)c2)[nH]1`, the GI50 was > 100 µM with HCT-15; 2.48 µM (inactive) in the assay with EKVX; > 100 µM (inactive) in the assay on CAKI-1; > 100 µM (inactive) in the assay with COLO 205; > 100 µM (inactive) in the assay on NCI-H23; > 100 µM (inactive) with HCT-116. Moreover, the GI50 in the assay with PC-3, with NCI-H522, with SN12C, with M14, in the assay on DU-145 and in the assay on Malme-3M was > 100 µM (inactive) throughout. For the same compound, the GI50 in the assay on OVCAR-3, in the assay with MCF7, in the assay on MOLT-4, in the assay with T47D, with IGROV-1 and in the assay with HT-29 was > 100 µM (inactive) each time. For the same compound, the GI50 with CCRF-CEM and in the assay on NCI/ADR-RES was > 100 µM (inactive) throughout.
Take `CCOC(=O)C1C(c2ccc(O)c(OC)c2)c2c(n[nH]c2O)CC1(C)O` (stereo not given): the GI50 is > 100 µM in the assay with HCT-15; > 100 µM (inactive) in the assay with EKVX; > 100 µM (inactive) with CAKI-1; > 100 µM (inactive) in the assay on COLO 205; > 100 µM (inactive) in the assay with NCI-H23; > 100 µM (inactive) in the assay with HCT-116. The GI50 with PC-3, with NCI-H522, in the assay on SN12C, with M14, in the assay on DU-145 and with Malme-3M was > 100 µM (inactive) throughout. The GI50 with OVCAR-3, in the assay on MCF7, in the assay on MOLT-4, in the assay with T47D, with IGROV-1 and in the assay with HT-29 was > 100 µM (inactive) each time. Also, the GI50 with CCRF-CEM and in the assay with NCI/ADR-RES was > 100 µM (inactive) each time.
With `CC(C)NC(=O)OCc1c(COC(=O)NC(C)C)c(-c2ccc[n+](COC(=O)CC(C)(C)C)c2)n2c1CCC2`, the GI50 with HCT-15 is > 100 µM; with EKVX, > 100 µM (inactive); in the assay with CAKI-1, 38.5 µM (inactive); with COLO 205, 89.3 µM (inactive); with NCI-H23 it was 48.6 µM (inactive); in the assay with HCT-116, > 100 µM (inactive). The GI50 is 58.5 µM (inactive) in the assay with PC-3; 31.6 µM (inactive) in the assay with NCI-H522; 73.8 µM (inactive) with SN12C; > 100 µM (inactive) in the assay on M14; > 100 µM (inactive) in the assay with DU-145; > 100 µM (inactive) in the assay on Malme-3M. The GI50 in the assay on OVCAR-3 was > 100 µM (inactive); in the assay on MCF7, 70.1 µM (inactive); in the assay on MOLT-4 it was > 100 µM (inactive); in the assay on T47D it was > 100 µM (inactive); in the assay on IGROV-1, > 100 µM (inactive); in the assay with HT-29 it was > 100 µM (inactive). Also, the GI50 was > 100 µM (inactive) with CCRF-CEM and 71 µM (inactive) in the assay on NCI/ADR-RES.
`Nc1ncnc2c1ncn2C1OC(CO)C(O)C1NS(=O)(=O)c1ccccc1` (stereo not given): the GI50 with HCT-15 is > 100 µM; in the assay on EKVX, > 100 µM (inactive); in the assay on CAKI-1, > 100 µM (inactive); with COLO 205, > 100 µM (inactive); in the assay with NCI-H23, > 100 µM (inactive); in the assay with HCT-116, > 100 µM (inactive). Also, the GI50 in the assay on PC-3, with NCI-H522, with SN12C, in the assay on M14, in the assay on DU-145 and in the assay with Malme-3M was > 100 µM (inactive) in each case. For the same compound, the GI50 in the assay with OVCAR-3, in the assay with MCF7, in the assay with MOLT-4, with T47D, in the assay with IGROV-1 and with HT-29 was > 100 µM (inactive) each time. Further, the GI50 with CCRF-CEM and in the assay with NCI/ADR-RES was > 100 µM (inactive) each time.
Regarding `N#Cc1ccc(C2ON=C(c3ccccc3)N2C23CC4CC(CC(C4)C2)C3)cc1` (stereo not given), the GI50 in the assay with HCT-15 was > 10 µM; in the assay on EKVX, > 10 µM (inactive); with CAKI-1, > 10 µM (inactive); with COLO 205 it was > 10 µM (inactive); in the assay on NCI-H23, > 10 µM (inactive); in the assay on HCT-116, > 10 µM (inactive). The GI50 in the assay with PC-3 was 7.98 µM (inactive); with NCI-H522 it was > 10 µM (inactive); with SN12C, > 10 µM (inactive); in the assay with M14, > 10 µM (inactive); in the assay on DU-145, > 10 µM (inactive); with Malme-3M it was > 10 µM (inactive). In addition, the GI50 was > 10 µM (inactive) in the assay on OVCAR-3; > 10 µM (inactive) with MCF7; 9.66 µM (inactive) in the assay with MOLT-4; > 10 µM (inactive) in the assay on T47D; > 10 µM (inactive) in the assay on IGROV-1; > 10 µM (inactive) in the assay on HT-29. Also, the GI50 in the assay on CCRF-CEM was > 10 µM (inactive); with NCI/ADR-RES it was 0.00536 µM (active).
As for `Cc1cn(Cc2ccccc2CCl)c(=O)[nH]c1=O`, the GI50 was 14.8 µM in the assay with HCT-15; 16.4 µM (inactive) in the assay with EKVX; 10.4 µM (inactive) with CAKI-1; 17.1 µM (inactive) with COLO 205; 10.2 µM (inactive) in the assay with NCI-H23; 4.53 µM (inactive) in the assay with HCT-116. Moreover, the GI50 in the assay on PC-3 was 16 µM (inactive); in the assay on NCI-H522, 6.34 µM (inactive); in the assay with SN12C, 12.6 µM (inactive); in the assay on M14, 12.9 µM (inactive); with DU-145 it was 13.1 µM (inactive); in the assay with Malme-3M it was 21.3 µM (inactive). Moreover, the GI50 in the assay on OVCAR-3 is 4.24 µM (inactive); in the assay with MCF7, 4.84 µM (inactive); with MOLT-4, 3.15 µM (inactive); with T47D it was 11.5 µM (inactive); in the assay on IGROV-1, 3.46 µM (inactive); in the assay with HT-29, 15.4 µM (inactive). Also, the GI50 in the assay with CCRF-CEM was 4.58 µM (inactive); in the assay on NCI/ADR-RES, 18.2 µM (inactive).
On to `O=C(O)Cc1cccc2c(=O)c3ccccc3oc12`, for which the GI50 with HCT-15 was 21.1 µM; with EKVX, > 100 µM (inactive); in the assay with CAKI-1, > 100 µM (inactive); in the assay on COLO 205, > 100 µM (inactive); in the assay on NCI-H23, > 100 µM (inactive); in the assay on HCT-116, > 100 µM (inactive). For the same compound, the GI50 in the assay with PC-3 is > 100 µM (inactive); with NCI-H522, 48.5 µM (inactive); in the assay with SN12C, > 100 µM (inactive); with M14, > 100 µM (inactive); in the assay with DU-145 it was > 100 µM (inactive); with Malme-3M, > 100 µM (inactive). For the same compound, the GI50 was > 100 µM (inactive) in the assay with OVCAR-3; > 100 µM (inactive) with MCF7; > 100 µM (inactive) in the assay with MOLT-4; 19.1 µM (inactive) in the assay with T47D; > 100 µM (inactive) with IGROV-1; > 100 µM (inactive) with HT-29. For the same compound, the GI50 with CCRF-CEM and with NCI/ADR-RES was > 100 µM (inactive) in each case.
